Data taken from the NIST ThermoML archive (doi:10.1016/j.jct.2013.09.018).
Numbers after ± are expanded uncertainties.

Legend:
[1] = cn = amount concentration of the nth substance listed, in mol/dm3; conditions: 101 kPa, Liquid; for viscosity: Capillary tube (Ostwald / Ubbelohde) method; for mass density: Vibrating tube method
[2] = 101 kPa, Liquid; for viscosity: Capillary tube (Ostwald / Ubbelohde) method; for mass density: Vibrating tube method

## CCCCn1cc[n+](C)c1C.F[B-](F)(F)F [1-butyl-2,3-dimethylimidazolium tetrafluoroborate] + CO
[1]; 298.15 K, c1 = 0.005
  viscosity: 0.552 ± 0.012 mPa·s
  mass density: 787.59 ± 1 kg/m3
[1]; 298.15 K, c1 = 0.01
  viscosity: 0.5649 ± 0.012 mPa·s
  mass density: 788.04 ± 1 kg/m3
[1]; 298.15 K, c1 = 0.015
  viscosity: 0.5747 ± 0.012 mPa·s
  mass density: 788.45 ± 1 kg/m3
[1]; 298.15 K, c1 = 0.02
  viscosity: 0.5845 ± 0.012 mPa·s
  mass density: 788.96 ± 1 kg/m3
[1]; 308.15 K, c1 = 0.005
  viscosity: 0.487 ± 0.01 mPa·s
  mass density: 778.01 ± 1 kg/m3
[1]; 308.15 K, c1 = 0.01
  viscosity: 0.4978 ± 0.01 mPa·s
  mass density: 778.52 ± 1 kg/m3
[1]; 308.15 K, c1 = 0.015
  viscosity: 0.5043 ± 0.011 mPa·s
  mass density: 778.98 ± 1 kg/m3
[1]; 308.15 K, c1 = 0.02
  viscosity: 0.513 ± 0.011 mPa·s
  mass density: 779.46 ± 1 kg/m3
[1]; 318.15 K, c1 = 0.005
  viscosity: 0.4271 ± 0.0091 mPa·s
  mass density: 768.49 ± 1 kg/m3
[1]; 318.15 K, c1 = 0.01
  viscosity: 0.436 ± 0.0093 mPa·s
  mass density: 769.43 ± 1 kg/m3
[1]; 318.15 K, c1 = 0.015
  viscosity: 0.4446 ± 0.0095 mPa·s
  mass density: 769.92 ± 1 kg/m3
[1]; 318.15 K, c1 = 0.02
  viscosity: 0.4532 ± 0.0096 mPa·s
  mass density: 770.36 ± 1 kg/m3

## CO [methanol]
[2]; 298.15 K
  viscosity: 0.545 ± 0.011 mPa·s
  mass density: 786.61 ± 1 kg/m3
[2]; 308.15 K
  viscosity: 0.476 ± 0.01 mPa·s
  mass density: 777.15 ± 1 kg/m3
[2]; 318.15 K
  viscosity: 0.4183 ± 0.0089 mPa·s
  mass density: 767.74 ± 1 kg/m3

## CO [methanol] + CCCCn1cc[n+](C)c1C.F[B-](F)(F)F
[1]; 298.15 K, c2 = 0
  viscosity: 0.545 ± 0.011 mPa·s
  mass density: 786.61 ± 1 kg/m3
[1]; 308.15 K, c2 = 0
  viscosity: 0.476 ± 0.01 mPa·s
  mass density: 777.15 ± 1 kg/m3
[1]; 318.15 K, c2 = 0
  viscosity: 0.4183 ± 0.0089 mPa·s
  mass density: 767.74 ± 1 kg/m3
